Assay results from patent publication US12103919B2, “3-(5-oxy)-1-oxoisoindolin-2-yl)piperidine-2,6-dione derivatives and uses thereof” (NOVARTIS AG, priority 2021, dated 2024).
Like-named read-outs stand apart in the source and are kept apart here.

Molecular target: T1, WIZ (Homo sapiens, UniProt O95785+Q96SW2)
T1 construct: expressed in transfected cells
Assay: Quantification of WIZ protein levels in HiBit tag fusion protein assay (293T cells)
Assay type: cell-based
Set-up: Dmax: dose or concentration left out as unconfirmed
Settings: for DC50: read-out: WIZ AC50
How it was run: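 293T cells stably carrying a single-copy HiBit-WIZ fusion were exposed to compounds for about 18 hours at 37° C., top concentration 25 μM, 10-point 5-fold series. Lysates were complemented with LgBit and luminescence was read. Amax is the DMSO-normalized, curve-fitted percentage of WIZ-HiBit remaining at 25 uM.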

T1 sequence (O95785 whole entry): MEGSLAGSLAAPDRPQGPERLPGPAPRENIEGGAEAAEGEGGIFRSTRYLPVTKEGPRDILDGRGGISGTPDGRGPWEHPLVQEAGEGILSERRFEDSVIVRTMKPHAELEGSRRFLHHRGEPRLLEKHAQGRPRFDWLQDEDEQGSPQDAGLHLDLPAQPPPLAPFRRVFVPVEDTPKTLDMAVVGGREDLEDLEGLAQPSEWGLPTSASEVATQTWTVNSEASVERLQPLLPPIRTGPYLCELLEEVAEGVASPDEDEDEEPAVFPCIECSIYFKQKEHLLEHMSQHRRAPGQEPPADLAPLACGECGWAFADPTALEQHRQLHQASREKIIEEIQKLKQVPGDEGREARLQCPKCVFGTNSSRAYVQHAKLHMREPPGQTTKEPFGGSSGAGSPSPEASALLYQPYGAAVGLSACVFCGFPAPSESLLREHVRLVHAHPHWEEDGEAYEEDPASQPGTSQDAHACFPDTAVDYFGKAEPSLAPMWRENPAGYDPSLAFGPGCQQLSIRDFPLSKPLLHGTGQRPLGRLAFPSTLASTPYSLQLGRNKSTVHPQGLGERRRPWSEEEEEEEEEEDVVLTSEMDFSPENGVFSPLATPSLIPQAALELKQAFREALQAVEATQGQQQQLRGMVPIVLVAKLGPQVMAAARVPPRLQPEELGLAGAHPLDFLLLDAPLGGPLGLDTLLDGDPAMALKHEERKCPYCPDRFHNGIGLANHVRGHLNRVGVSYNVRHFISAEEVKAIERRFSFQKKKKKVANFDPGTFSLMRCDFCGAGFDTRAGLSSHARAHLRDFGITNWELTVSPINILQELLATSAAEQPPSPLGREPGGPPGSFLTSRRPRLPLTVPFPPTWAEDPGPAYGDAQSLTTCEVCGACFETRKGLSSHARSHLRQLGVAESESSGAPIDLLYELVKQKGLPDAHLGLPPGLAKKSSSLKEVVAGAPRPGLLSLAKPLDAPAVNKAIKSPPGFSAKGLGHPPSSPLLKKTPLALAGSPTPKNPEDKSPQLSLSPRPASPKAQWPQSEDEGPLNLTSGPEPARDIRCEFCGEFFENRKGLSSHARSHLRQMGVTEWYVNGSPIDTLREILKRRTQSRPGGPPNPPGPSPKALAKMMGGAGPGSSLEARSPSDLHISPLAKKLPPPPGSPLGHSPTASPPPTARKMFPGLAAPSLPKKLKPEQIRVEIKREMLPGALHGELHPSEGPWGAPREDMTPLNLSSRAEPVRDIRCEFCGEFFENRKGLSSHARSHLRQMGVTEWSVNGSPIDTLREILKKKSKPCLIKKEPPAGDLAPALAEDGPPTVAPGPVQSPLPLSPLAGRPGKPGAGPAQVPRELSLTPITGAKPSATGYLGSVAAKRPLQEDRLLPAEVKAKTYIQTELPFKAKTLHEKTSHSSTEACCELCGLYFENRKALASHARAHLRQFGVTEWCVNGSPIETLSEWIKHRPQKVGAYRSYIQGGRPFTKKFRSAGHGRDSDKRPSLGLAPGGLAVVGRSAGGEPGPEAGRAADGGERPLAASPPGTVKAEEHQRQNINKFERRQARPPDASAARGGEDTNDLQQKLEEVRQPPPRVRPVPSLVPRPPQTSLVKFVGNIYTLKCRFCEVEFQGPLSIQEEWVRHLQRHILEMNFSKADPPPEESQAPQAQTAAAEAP
T1 sequence (Q96SW2 whole entry): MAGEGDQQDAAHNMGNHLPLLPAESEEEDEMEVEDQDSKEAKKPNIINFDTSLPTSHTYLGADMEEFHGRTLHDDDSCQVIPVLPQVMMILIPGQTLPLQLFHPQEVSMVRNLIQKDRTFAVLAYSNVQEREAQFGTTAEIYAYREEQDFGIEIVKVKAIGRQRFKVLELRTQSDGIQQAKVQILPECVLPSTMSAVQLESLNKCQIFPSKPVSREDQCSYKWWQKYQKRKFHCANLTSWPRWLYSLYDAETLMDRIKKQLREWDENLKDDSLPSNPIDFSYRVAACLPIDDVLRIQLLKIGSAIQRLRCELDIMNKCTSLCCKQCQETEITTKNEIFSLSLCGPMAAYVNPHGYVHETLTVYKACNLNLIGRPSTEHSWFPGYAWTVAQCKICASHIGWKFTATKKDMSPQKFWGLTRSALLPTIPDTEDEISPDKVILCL
T1 sequence (Q16531 whole entry partner): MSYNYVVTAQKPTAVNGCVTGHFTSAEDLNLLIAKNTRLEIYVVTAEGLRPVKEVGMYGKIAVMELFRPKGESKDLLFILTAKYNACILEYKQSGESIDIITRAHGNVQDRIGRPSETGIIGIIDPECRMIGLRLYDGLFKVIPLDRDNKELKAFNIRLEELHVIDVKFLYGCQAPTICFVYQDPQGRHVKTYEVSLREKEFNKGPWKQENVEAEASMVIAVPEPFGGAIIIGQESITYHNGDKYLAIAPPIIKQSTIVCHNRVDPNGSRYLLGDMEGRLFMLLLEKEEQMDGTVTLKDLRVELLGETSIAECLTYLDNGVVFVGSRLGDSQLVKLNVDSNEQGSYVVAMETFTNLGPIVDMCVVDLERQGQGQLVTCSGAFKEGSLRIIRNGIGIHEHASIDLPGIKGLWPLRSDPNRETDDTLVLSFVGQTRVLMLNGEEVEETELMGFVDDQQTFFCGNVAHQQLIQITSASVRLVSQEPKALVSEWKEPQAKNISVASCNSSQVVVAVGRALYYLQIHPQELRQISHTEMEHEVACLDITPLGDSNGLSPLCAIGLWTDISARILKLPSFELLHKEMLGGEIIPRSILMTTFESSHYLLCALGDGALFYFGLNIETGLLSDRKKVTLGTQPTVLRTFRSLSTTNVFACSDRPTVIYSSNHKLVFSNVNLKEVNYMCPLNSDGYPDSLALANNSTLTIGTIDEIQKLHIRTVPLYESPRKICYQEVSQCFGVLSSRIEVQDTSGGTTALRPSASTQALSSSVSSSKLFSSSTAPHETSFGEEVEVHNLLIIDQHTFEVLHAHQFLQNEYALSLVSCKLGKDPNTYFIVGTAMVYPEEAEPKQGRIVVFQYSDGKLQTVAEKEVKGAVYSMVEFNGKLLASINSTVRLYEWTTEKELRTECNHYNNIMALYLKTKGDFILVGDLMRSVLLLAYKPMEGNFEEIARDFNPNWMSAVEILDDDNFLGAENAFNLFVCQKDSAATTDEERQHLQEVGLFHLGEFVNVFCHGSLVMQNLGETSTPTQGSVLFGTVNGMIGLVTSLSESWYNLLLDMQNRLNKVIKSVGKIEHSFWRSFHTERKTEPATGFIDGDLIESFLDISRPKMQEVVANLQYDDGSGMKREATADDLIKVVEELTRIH

`CCN1CCC[C@@H](Oc2ccc3c(c2)CN(C2CCC(=O)NC2=O)C3=O)C1` (mixture of isomers) [Example 1, 3-(5-(((R)-1-ethylpiperidin-3-yl)oxy)-1-oxoisoindolin-2-yl)piperidine-2,6-dione] showed a Dmax (HEK-293T, read-out: % degradation of WIZ (100 − Amax)) of 76%, a remaining activity at 25 µM (HEK-293T, read-out: WIZ Amax) of 24% and a DC50 (WIZ HiBit assay in 293T cells, about 18 hours, 10-point 5-fold dilution, top 25 μM) of 16 nM. It also gave a DC50 (updated arithmatic mean over the number of repeats specified, assay of Example 89) of 16 nM.
